The source of these data is EP0867722A2, “Method for measuring interaction between sugar and target” (TAKARA SHUZO CO. LTD., priority 1997, dated 1998).

Tested on in one data set: not listed separately
Briefly: Photostability of labeling fluorophores under white fluorescent lamp (residual fluorescence). The format is physicochemical. Conditions: 1 µM in 10 mM Tris-HCl buffer, pH 7.5, 25°C, white fluorescent lamp about 4000 lux, 16 hours; ratio of exposed solution to shaded solution. From the text:
For the measurement of photostability, therefore, such labeling fluorophores are used. The following seven labeling fluorophores were selected. • 1. 2-Aminopyridine (AP) (Nacalai Tesque Inc.) • 2. […] 8-Amino-2-naphthol (AN) (Aldrich Chemical Company, Inc.) • 4. 5-((5-aminopentyl)thioureidyl)fluorescein (AF) (Molecular Probes Inc.) • 5. 5-Dimethylaminonapnthalene-1-(N-(2-minoethyl))sulfone (AD) (Molecular Probes Inc.) • 6. 2-Aminobenzamide (AB) (Oxford GlycoSystems Ltd.) • 7. 8-Amino-naphthalene-1,3,6-trisulfonic acid (ANTS) (Molecular Probes Inc.)
Each of the above reagents was dissolved in 10 mM Tris-HCl buffer, pH 7.5, to a concentration of 1 µM, and 1 ml of each solution was placed in a test tube of hard glass (size: diameter, 12 mm and length, 120mm) and allowed to stand at 25°C under a white fluorescent lamp. At this time, the illumination intensity in the vicinity of each solution was measured by an illumination photometer to be about 4000 lux. For controls, test tubes containing the same solutions were prepared, but they were shaded with aluminum foil and stored under the same conditions as described above. After 16 hours, the fluorescence of each solution was measured by fluorescent spectrophotometer RF-540 (Shimazu Corp.). The excitation and emission wavelengths used in the measurement of fluorescence of the solutions of each fluorescent substance, and residual fluorescence (i.e., ratio of the relative degree of fluorescence for the exposed solution to the relative degree of fluorescence for the shaded solution) are shown in Table 1.
On to `NC(=O)c1ccccc1N` [AB, 2-Aminobenzamide], for which the “Residual fluorescence (%)” value amounted to 96%.
The same measure, in the same setting: next, `CN(C)c1cccc2c(S(=O)(=O)NCCN)cccc12` [AD, 5-Dimethylaminonapnthalene-1-(N-(2-minoethyl))sulfone]: 97%; `NCCCCCNC(=S)Nc1ccc2c(c1)C(=O)OC21c2ccc(O)cc2Oc2cc(O)ccc21` [AF, 5-((5-aminopentyl)thioureidyl)fluorescein]: 17%; `Nc1cccc2ccc(O)cc12` [AN, 8-Amino-2-naphthol]: 84%.
Consider `Nc1cc(S(=O)(=O)O)cc2cc(S(=O)(=O)O)cc(S(=O)(=O)O)c12` [ANTS, 8-Amino-naphthalene-1,3,6-trisulfonic acid], for which the “Residual fluorescence (%)” value was 96%.
For `Nc1ccccn1` [AP, 2-Aminopyridine], the “Residual fluorescence (%)” value worked out at 98%.

For another data set, the target named is T1, concanavalin A (Canavalia ensiformis, UniProt P02866).
T1 construct: purchased Honen Oil Co., Ltd
Briefly: Fluorescence polarization measurement of interaction between fluorescence-labeled sugar fractions and concanavalin A. The format is binding. Conditions: 1 µM labeled sugar or fluorophore; no maximum means EC50 impossible to calculate. An excerpt:
The interaction between the sugar molecules and the target molecules to be measured is not always highly specific as compared with antigen-antibody reaction. To find the most suitable combination, the degree of interaction should be evaluated. As an index to show the degree of interaction, for example, EC50 can be used, which is a half value of the minimum target concentration giving the maximum degree of fluorescence polarization.
BEACON™ 2000 (PanVera Corp.) was modified so as to be adapted for the detection of pyridylamino-labeled substances. […]
Seven fractions of fluorescence-labeled sugars prepared in the above item 1 were freeze-dried to remove water, acetonitrile and eluents-derived salts, and then used for the subsequent measurement of an interaction. The measurement of the degree of fluorescence polarization was conducted as follows. […]
In each of the eight solutions of concanavalin A in various concentrations, each fluorescence-labeled sugar fraction was dissolved to a concentration of 1 µM. After the dissolution, the solutions were allowed to stand at room temperature for 30 minutes, and the reaction mixtures thus obtained were used each in a volume of 100 µl to measure the degree of fluorescence polarization with a modified apparatus of the BEACON™ system as described in the above item 2, which was equipped with filters for excitation at 310 nm and emission at 390 nm. […]
In the case of `Nc1ccccn1` [AP, 2-Aminopyridine], the “maximum in the degree of fluorescence polarization over the range of concentration of concanavalin A” value is “no maximum”.
